Legend:
B. subtilis 168 [1] = assay: fitness (endpoint OD595 vs no drug) (fraction); higher = more growth
How it was run: (§1)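 Growth medium was TSB, LB Lennox or CY, and plates were kept at 37 °C. Inoculation was at OD595 0.01 in 384-well plates, at 30 µl per well or 55 µl for S. pneumoniae. OD595 was monitored every 30 min for 14 h and background-subtracted using the first reading. Fitness is the optical density on entering stationary phase divided by the robust mean of no-drug controls, with values capped at 1.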

S. pneumoniae D39V [2] = assay: as above
How it was run: as §1

S. aureus Newman = assay: Bliss interaction score (quartile over a dose matrix) (fitness difference); higher = more antagonism (negative = synergy)
How it was run: (§2)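 The Bliss score is observed minus expected fitness, where expected fitness is the product of the single-drug fitness values inferred from the combination data. Fitness is the OD595 at the onset of stationary phase over the plate's robust no-drug mean, capped at 1. Scores are summarised by quartiles over technical, biological and donor/recipient replicates.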

B. subtilis 168 [3] = assay: as above
How it was run: as §2

S. aureus DSM 20231 = assay: as above
How it was run: as §2

S. pneumoniae D39V [4] = assay: as above
How it was run: as §2
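For Bliss interaction score (quartile over a dose matrix) in this document: first quartile when negative (synergy) and third quartile when positive (antagonism).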
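For fitness (endpoint OD595 vs no drug) in this document: OD595 on entry to stationary phase over no-drug wells; at most 1.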

O=C(O)c1cn(C2CC2)c2cc(N3CCNCC3)c(F)cc2c1=O [Ciprofloxacin] + CCC(C)C1C(=O)NC(=C)C(=O)NC(C(=O)NC(CSCC(C(=O)N1)NC(=O)/C(=C/C)/NC(=O)C(C(C)CC)N)C(=O)NC2C(SCC(NC(=O)CNC(=O)C3CCCN3C2=O)C(=O)NC(CCCCN)C(=O)NC4C(SCC(NC(=O)CNC(=O)C(NC(=O)C(NC(=O)C(NC(=O)CNC4=O)C)CC(C)C)CCSC)C(=O)NC(CC(=O)N)C(=O)NC(CCSC)C(=O)NC(CCCCN)C(=O)NC5C(SCC6C(=O)NC(C(=O)NC(CSC(C(C(=O)N6)NC(=O)C(NC5=O)C)C)C(=O)NC(CO)C(=O)NC(C(C)CC)C(=O)NC(CC7=CN=CN7)C(=O)NC(C(C)C)C(=O)NC(=C)C(=O)NC(CCCCN)C(=O)O)CC8=CN=CN8)C)C)C)CC(C)C [Nisin]
main component drawn
Details	fitness
B. subtilis 168 [1], first compound 0.0098 µg/mL, partner 0.5 µg/mL	0.838
B. subtilis 168 [1], first compound 0.0098 µg/mL, partner 1 µg/mL	0.814
B. subtilis 168 [1], first compound 0.0098 µg/mL, partner 2 µg/mL	0.568
B. subtilis 168 [1], first compound 0.0195 µg/mL, partner 0.5 µg/mL	0.702
B. subtilis 168 [1], first compound 0.0195 µg/mL, partner 1 µg/mL	0.591
B. subtilis 168 [1], first compound 0.0195 µg/mL, partner 2 µg/mL	0.427
B. subtilis 168 [1], first compound 0.039 µg/mL, partner 0.5 µg/mL	0.276
B. subtilis 168 [1], first compound 0.039 µg/mL, partner 1 µg/mL	0.129
B. subtilis 168 [1], first compound 0.039 µg/mL, partner 2 µg/mL	0.031
S. pneumoniae D39V [2], first compound 0.125 µg/mL, partner 0.4275 µg/mL	0.954
S. pneumoniae D39V [2], first compound 0.125 µg/mL, partner 0.855 µg/mL	0.825
S. pneumoniae D39V [2], first compound 0.125 µg/mL, partner 1.6 µg/mL	0.0088
S. pneumoniae D39V [2], first compound 0.125 µg/mL, partner 1.71 µg/mL	0.0552
S. pneumoniae D39V [2], first compound 0.125 µg/mL, partner 3.2 µg/mL	0.0108
S. pneumoniae D39V [2], first compound 0.125 µg/mL, partner 6.4 µg/mL	0.005
S. pneumoniae D39V [2], first compound 0.25 µg/mL, partner 0.4275 µg/mL	0.883
S. pneumoniae D39V [2], first compound 0.25 µg/mL, partner 0.855 µg/mL	0.398
S. pneumoniae D39V [2], first compound 0.25 µg/mL, partner 1.71 µg/mL	0.0414
S. pneumoniae D39V [2], first compound 0.5 µg/mL, partner 0.4275 µg/mL	0.614
S. pneumoniae D39V [2], first compound 0.5 µg/mL, partner 0.855 µg/mL	0.173
S. pneumoniae D39V [2], first compound 0.5 µg/mL, partner 1.6 µg/mL	0.0116
S. pneumoniae D39V [2], first compound 0.5 µg/mL, partner 1.71 µg/mL	0.0558
S. pneumoniae D39V [2], first compound 0.5 µg/mL, partner 3.2 µg/mL	0.043

fitness, one replicate, main component drawn
Details	partner 1.25 µg/mL	partner 1.6 µg/mL	partner 2.5 µg/mL	partner 3.2 µg/mL	partner 4 µg/mL	partner 5 µg/mL	partner 6.4 µg/mL	partner 8 µg/mL	partner 16 µg/mL
B. subtilis 168 [1], first compound 0.0098 µg/mL	0.919	0.726	0.577	0.0245	0.368	0.0657	0.0606	0.0414	0.0186
B. subtilis 168 [1], first compound 0.0195 µg/mL	0.795	0.575	0.381	0.0411	0.223	0.035	0.0488	0.0139	0.0115
B. subtilis 168 [1], first compound 0.039 µg/mL	0.256	0.0309	0.0565	0.0347	0.0357	0.061	0.0335	0.0446	0.0305
S. pneumoniae D39V [2], first compound 0.25 µg/mL	–	0	–	0	–	–	0	–	–

main component drawn
Details	Bliss interaction score
B. subtilis 168 [3]	-0.0496
S. aureus DSM 20231	-0.123
S. aureus Newman	-0.059
S. pneumoniae D39V [4]	-0.0601

O=C(O)c1cn(C2CC2)c2cc(N3CCNCC3)c(F)cc2c1=O [Ciprofloxacin] + CCC[C@@H]1C[C@@H](C(=O)N[C@@H]([C@H]2O[C@H](SC)[C@H](O)[C@@H](O)[C@H]2O)[C@@H](C)O)N(C)C1 [Lincomycin]
fitness
Details	partner 0.1 µg/mL	partner 0.2 µg/mL	partner 0.215 µg/mL	partner 0.4 µg/mL	partner 0.43 µg/mL	partner 0.8 µg/mL	partner 0.86 µg/mL
B. subtilis 168 [1], first compound 0.0098 µg/mL	0.876	0.814	–	0.9	–	–	–
B. subtilis 168 [1], first compound 0.0195 µg/mL	0.713	0.751	–	0.763	–	–	–
S. pneumoniae D39V [2], first compound 0.125 µg/mL	–	0.564	0.801	0.323	0.722	0.0204	0.469
S. pneumoniae D39V [2], first compound 0.25 µg/mL	–	–	0.789	–	0.701	–	0.517
S. pneumoniae D39V [2], first compound 0.5 µg/mL	–	0.46	0.674	0.292	0.618	0.0616	0.318

fitness, one replicate
Details	partner 0.2 µg/mL	partner 0.4 µg/mL	partner 0.8 µg/mL	partner 1.6 µg/mL
B. subtilis 168 [1], first compound 0.0098 µg/mL	–	–	0.943	0.926
B. subtilis 168 [1], first compound 0.0195 µg/mL	–	–	0.745	0.767
B. subtilis 168 [1], first compound 0.039 µg/mL	–	–	0.486	0.674
S. pneumoniae D39V [2], first compound 0.25 µg/mL	0.404	0.256	0	–

Details	Bliss interaction score
B. subtilis 168 [3]	0.169
S. aureus DSM 20231	0.208
S. aureus Newman	0.119
S. pneumoniae D39V [4]	0.0743

O=C(O)c1cn(C2CC2)c2cc(N3CCNCC3)c(F)cc2c1=O [Ciprofloxacin] + CN(C)C(=O)C(CCN1CCC(O)(c2ccc(Cl)cc2)CC1)(c1ccccc1)c1ccccc1 [Loperamide]
Details	fitness
B. subtilis 168 [1], first compound 0.0098 µg/mL, partner 25 µg/mL	0.855
B. subtilis 168 [1], first compound 0.0195 µg/mL, partner 25 µg/mL	0.643
B. subtilis 168 [1], first compound 0.039 µg/mL, partner 25 µg/mL	0.038
B. subtilis 168 [1], first compound 0.039 µg/mL, partner 50 µg/mL	0.0608
B. subtilis 168 [1], first compound 0.039 µg/mL, partner 100 µg/mL	0.0402
S. pneumoniae D39V [2], first compound 0.125 µg/mL, partner 17.14 µg/mL	0.944
S. pneumoniae D39V [2], first compound 0.125 µg/mL, partner 20 µg/mL	≥ 1
S. pneumoniae D39V [2], first compound 0.125 µg/mL, partner 34.28 µg/mL	0.923
S. pneumoniae D39V [2], first compound 0.125 µg/mL, partner 40 µg/mL	≥ 1
S. pneumoniae D39V [2], first compound 0.25 µg/mL, partner 17.14 µg/mL	0.887
S. pneumoniae D39V [2], first compound 0.25 µg/mL, partner 34.28 µg/mL	0.886
S. pneumoniae D39V [2], first compound 0.5 µg/mL, partner 17.14 µg/mL	0.763
S. pneumoniae D39V [2], first compound 0.5 µg/mL, partner 20 µg/mL	0.883
S. pneumoniae D39V [2], first compound 0.5 µg/mL, partner 34.28 µg/mL	0.731
S. pneumoniae D39V [2], first compound 0.5 µg/mL, partner 40 µg/mL	0.865

fitness, S. pneumoniae D39V [2], one replicate
Details	partner 20 µg/mL	partner 40 µg/mL	partner 68.57 µg/mL	partner 80 µg/mL
first compound 0.125 µg/mL	–	–	0.952	–
first compound 0.25 µg/mL	0.994	≥ 1	0.964	0.531
first compound 0.5 µg/mL	–	–	0.886	–

Details	Bliss interaction score
B. subtilis 168 [3]	0.199
S. aureus DSM 20231	-0.258
S. aureus Newman	-0.0992
S. pneumoniae D39V [4]	0.109

O=C(O)c1cn(C2CC2)c2cc(N3CCNCC3)c(F)cc2c1=O [Ciprofloxacin] + C[C@H]1COc2c(N3CCN(C)CC3)c(F)cc3c(=O)c(C(=O)O)cn1c23 [Levofloxacin]
one replicate
Details	fitness
B. subtilis 168 [1], first compound 0.0098 µg/mL, partner 0.001 µg/mL	0.863
B. subtilis 168 [1], first compound 0.0098 µg/mL, partner 0.0078 µg/mL	0.934
B. subtilis 168 [1], first compound 0.0195 µg/mL, partner 0.001 µg/mL	0.829
B. subtilis 168 [1], first compound 0.0195 µg/mL, partner 0.0078 µg/mL	0.683
B. subtilis 168 [1], first compound 0.039 µg/mL, partner 0.001 µg/mL	0.291
B. subtilis 168 [1], first compound 0.039 µg/mL, partner 0.0078 µg/mL	0.0887
S. pneumoniae D39V [2], first compound 0.25 µg/mL, partner 0.2 µg/mL	0.752
S. pneumoniae D39V [2], first compound 0.25 µg/mL, partner 0.4 µg/mL	0.559
S. pneumoniae D39V [2], first compound 0.25 µg/mL, partner 0.8 µg/mL	0.124

Details	fitness
B. subtilis 168 [1], first compound 0.0098 µg/mL, partner 0.002 µg/mL	0.855
B. subtilis 168 [1], first compound 0.0098 µg/mL, partner 0.0039 µg/mL	0.873
B. subtilis 168 [1], first compound 0.0098 µg/mL, partner 0.0312 µg/mL	0.0377
B. subtilis 168 [1], first compound 0.0098 µg/mL, partner 0.0625 µg/mL	0.0424
B. subtilis 168 [1], first compound 0.0098 µg/mL, partner 0.125 µg/mL	0.0385
B. subtilis 168 [1], first compound 0.0195 µg/mL, partner 0.002 µg/mL	0.727
B. subtilis 168 [1], first compound 0.0195 µg/mL, partner 0.0039 µg/mL	0.722
B. subtilis 168 [1], first compound 0.0195 µg/mL, partner 0.0312 µg/mL	0.0376
B. subtilis 168 [1], first compound 0.0195 µg/mL, partner 0.0625 µg/mL	0.0489
B. subtilis 168 [1], first compound 0.0195 µg/mL, partner 0.125 µg/mL	0.0429
B. subtilis 168 [1], first compound 0.039 µg/mL, partner 0.002 µg/mL	0.123
B. subtilis 168 [1], first compound 0.039 µg/mL, partner 0.0039 µg/mL	0.145
B. subtilis 168 [1], first compound 0.039 µg/mL, partner 0.0312 µg/mL	0.0451
B. subtilis 168 [1], first compound 0.039 µg/mL, partner 0.0625 µg/mL	0.0495
B. subtilis 168 [1], first compound 0.039 µg/mL, partner 0.125 µg/mL	0.0401
S. pneumoniae D39V [2], first compound 0.125 µg/mL, partner 0.1725 µg/mL	0.884
S. pneumoniae D39V [2], first compound 0.125 µg/mL, partner 0.2 µg/mL	0.883
S. pneumoniae D39V [2], first compound 0.125 µg/mL, partner 0.345 µg/mL	0.794
S. pneumoniae D39V [2], first compound 0.125 µg/mL, partner 0.4 µg/mL	0.735
S. pneumoniae D39V [2], first compound 0.125 µg/mL, partner 0.69 µg/mL	0.498
S. pneumoniae D39V [2], first compound 0.125 µg/mL, partner 0.8 µg/mL	0.201
S. pneumoniae D39V [2], first compound 0.25 µg/mL, partner 0.1725 µg/mL	0.83
S. pneumoniae D39V [2], first compound 0.25 µg/mL, partner 0.345 µg/mL	0.723
S. pneumoniae D39V [2], first compound 0.25 µg/mL, partner 0.69 µg/mL	0.445
S. pneumoniae D39V [2], first compound 0.5 µg/mL, partner 0.1725 µg/mL	0.592
S. pneumoniae D39V [2], first compound 0.5 µg/mL, partner 0.345 µg/mL	0.462
S. pneumoniae D39V [2], first compound 0.5 µg/mL, partner 0.69 µg/mL	0.282
S. pneumoniae D39V [2], first compound 0.5 µg/mL, partner 0.8 µg/mL	0.145

Details	Bliss interaction score
B. subtilis 168 [3]	-0.0411
S. aureus DSM 20231	-0.147
S. aureus Newman	-0.194
S. pneumoniae D39V [4]	-0.166

Reference: the supplement of paper PMC10627819
